In patent publication US5296481A, “Treatment process for promoting weight loss employing a substituted Δ 5” (Humanetics Corporation, priority 1992, dated 1994):

What was measured:
[1] = system: Mitochondrial G3P-DH (glycerol 3-phosphate dehydrogenase), rat liver; test: Mitochondrial G3P-DH activity in liver of steroid-fed rats (enzyme induction in rat liver by C19 steroids); format: in vivo, rat (male Sprague Dawley); settings: 6 days, rat liver mitochondria
From the text: (§1) Administration of Hormone: Male Sprague Dawley rats weighing 125-150 gm were obtained from Sasco Inc. of Oregon, Wis. The rats were allowed free access to water and Purina Rat Chow pellets for the first day after arrival Administration of the steroids began on day two. The steroids were either administered orally (combined with the Purina Rat Chow) or injected intraperitoneal as set forth in Table 1 for 6 days.
(§2) Preparation of Liver Mitochondria and Cytosol. The treated rats were sacrificed by decapitation after 6 days of treatment. The livers were excised, placed in 10 ml of a buffer consisting of 250 mM mannitol, 70 mM sucrose, and 3 mM Hepes (hereinafter MSH buffer) at pH 7.4, weighed, removed from the buffer, minced with scissors, washed with MSH buffer, suspended in MSH buffer at a ratio of 1 gram minced liver to 5 ml MSH buffer, and homogenized with a Potter-Elvehjem rotary homogenizer.
The Mitochondria fraction was prepared by the method described in Johnson, D. and Lardy, H. A., Methods Enzymology, vol. 10, pp 94-96 (1967) which is hereby incorporated by reference. Briefly, liver homogenate was centrifuged in a Beckman Model J2-21 centrifuge, JA-20 rotor at 750 g for 10 minutes and the resulting supernatant solution centrifuged at 15,000 g for an additional 10 minutes. The resulting mitochondrial pellets were washed twice with MSH buffer, resuspended in 0.8 to 1 ml of a 35 wt % aqueous glycerol solution, and stored at -70° C.
(§3) Protein concentrations in the resultant preparations were determined by the Biuret method described in Layne E., Methods Enzymology, vol. 3, pp 450451 (1957) which is hereby incorporated by reference. Briefly, the protein concentrations were determined by treating a dilute protein solution with copper tartrate solution and measuring the optical density at 540 nm.
Enzyme Assays. Mitochondrial G3P-DH activity was measured by the method described in Wernette, M. E., Ochs, R. S., and Lardy, H. A., J. Biol. Chem., vol. 256, pp 12767-12771 (1981) which is a modified version of the method described in Gardner, R. S., Anal. Biochem., vol. 59, pp 272-276 (1974). Both references are hereby incorporated by reference. Briefly, aliquots of the previously prepared mitochondria containing 0.1 to 0.2 mg of protein were incubated in a test tube containing 50 mM sn-glycerol-3-P,50 mM potassium phosphate (pH 7.0), 1 mM KCN, and 0.2% p-iodonitrotetrazolium violet in a total volume of 0.4 ml for 30 min at 37° C. The incubating mitochondria were continuously agitated during the incubation period by a Dubnoff shaker agitated at 100 cycles/min. Incubation was ceased by the addition of 0.6 ml of 1M acetic acid to the test tube. The iodoformazan formed during the incubation period was extracted into 2 ml of ethyl acetate by adding the ethyl acetate to the test tube, mixing thoroughly, and then decanting the ethyl acetate containing the iodoformazan from the test tube. The optical densities of the iodoformazan containing ethyl acetate layers were read at 490 nm by means of an On Line Instrument Systems, Model 3820 Data System, Spectrophotometry, Cary--15, Version 4 08. An extinction coefficient value of 2.01×10^4 /(M cm) for the iodoformazan product in ethyl acetate was used to calculate enzyme activities.

[2] = system: Cytosolic malic enzyme, rat liver; test: Cytosolic malic enzyme activity in liver of steroid-fed rats (enzyme induction in rat liver by C19 steroids); format: in vivo, rat (male Sprague Dawley); settings: 6 days, rat liver cytosol
From the text: as §1, §2
The Cytosolic fraction was obtained by recentrifuging the previously centrifuged supernatant solution at 100,000 g for 30 minutes in a Beckman Model L2 ultracentrifuge, type 40 rotor. The resultant supernatant solution was stored at -70° C.
as §3
Cytosolic malic enzyme activity was measured in accordance with the method described in Hsu, R. Y. and Lardy, H. A., Methods Enzymol., vol. 8, pp 230-235 (1967). Briefly, aliquots of the previously prepared cytosol containing 0.1 to 0.5 mg of protein were incubated in a test tube containing 0.8 mM malate, 67 mM triethanolamine buffer (pH 7.4), 4 mM MnCl2, and 0.2 mM NADP in a total volume of 1 ml for 3 min at 26° C. Activity of malic enzyme was calculated from the rate of change in optical density measured at 340 nm from 0.5 to 2 minutes with an On Line Instrument Systems, Model 3820 Data System, Spectrophotometry, Cary--15, Version 4.08.

Row | SMILES | G3P-DH (% control) ([1]; 0.01 wt % steroid in diet) | G3P-DH (% control) ([1]; 0.05 wt % steroid in diet) | G3P-DH (% control) ([1]; 0.1 wt % steroid in diet) | Malic Enzyme (% control) ([2]; 0.01 wt % steroid in diet) | Malic Enzyme (% control) ([2]; 0.05 wt % steroid in diet) | Malic Enzyme (% control) ([2]; 0.1 wt % steroid in diet) | other results
1 | C[C@]12CC[C@H](O)CC1=CC[C@@H]1[C@@H]2CC[C@]2(C)C(=O)CC[C@@H]12 [DHEA, Δ5-androstene 3β-hydroxy, 17-one, reference compound] | 139 | 251 | 265 | 64 | 337 | 394 | G3P-DH (% control) ([1]; 0.2 wt % steroid in diet): 380 % control; Malic Enzyme (% control) ([2]; 0.2 wt % steroid in diet): 512 % control
2 | CC(=O)O[C@H]1CC[C@@]2(C)C(=CC(=O)[C@H]3[C@@H]4CC[C@H](OC(C)=O)[C@@]4(C)CC[C@@H]32)C1 [Δ5-androstene 3β,17β-diol-7-one diacetate] | 173 |  |  | 119 |  |  | G3P-DH (% control) ([1]; 0.13 wt % steroid in diet): 232 % control; Malic Enzyme (% control) ([2]; 0.13 wt % steroid in diet): 452 % control
3 | C[C@]12CC[C@H](O)CC1=C[C@@H](O)[C@@H]1[C@@H]2CC[C@]2(C)C(=O)CC[C@@H]12 [Δ5 Androstene 3β,7α-ol-17-one, Δ5-Androstene 3β,7α-diol-17-one] |  | 292 |  |  | 423 |  | G3P-DH (% control) ([1]; 0.033 wt % steroid in diet): 308 % control; Malic Enzyme (% control) ([2]; 0.033 wt % steroid in diet): 374 % control
4 | CC1C=C2C[C@@H](O)CC[C@]2(C)[C@H]2CC[C@]3(C)C(=O)CC[C@H]3[C@H]12 (stereo partly drawn) [Δ5-Androstene-3β-ol-7-methyl-17-one, reference compound] |  |  | 91 |  |  | 121 | 
5 | C[C@]12CC[C@H](O)CC1=CC(=O)[C@@H]1[C@@H]2CC[C@]2(C)C(=O)CC[C@@H]12 [7-keto DHEA, Δ5-Androstene-3β-ol-7,17-dione] | 183 | 439 | 220 | 229 | 449 | 350 | G3P-DH (% control) ([1]; 0.0575 wt % steroid in diet): 224 % control; Malic Enzyme (% control) ([2]; 0.0575 wt % steroid in diet): 341 % control
6 | C[C@]12CC[C@H]3[C@@H]([C@H](O)C=C4C[C@@H](O)CC[C@@]43CO)[C@@H]1CCC2=O [Δ5 Androstene 3β,7α,19-ol-17-one, reference compound] |  |  | 117 |  |  | 118 | 
7 | CC(=O)O[C@H]1CC[C@@]2(C)C(=CC(=O)[C@@H]3[C@@H]2CC[C@]2(C)C(=O)CC[C@@H]32)C1 [Δ5-Androstene-3β-ol-7,17-one acetate, Δ5-Androstene 3β-acetoxy-7,17-dione] |  |  |  |  |  |  | G3P-DH (% control) ([1]; 0.115 wt % steroid in diet): 261 % control; Malic Enzyme (% control) ([2]; 0.115 wt % steroid in diet): 447 % control
8 | C[C@]12CC[C@H]3[C@@H]([C@H](O)C=C4C[C@@H](O)CC[C@@]43C)[C@@H]1CC[C@@H]2O [Δ5-Androstene 3β,7α,17β-triol] | 99 |  | 227 | 108 |  | 611 | 
9 | C[C@]12CC[C@H]3[C@@H](C(=O)C=C4C[C@@H](O)CC[C@@]43C)[C@@H]1CC[C@@H]2O [Δ5-Androstene 3β,17β-diol-7-one, Δ5-Androstene-3β,17β-diol-7-one] | 130 | 360 | 286 | 175 | 305 |  | 
